From PubChem BioAssay AID1259407 (Chemical Carcinogenesis Research Information System (CCRIS), 2018)
The source made the active and inactive calls. The rule behind the calls is not given here.

System: CCRIS mutagenicity, Ames/micronucleus/aberration tests
Assay: CCRIS mutagenicity studies
[1] = Test System: AMES SALMONELLA TYPHIMURIUM, Strain/Indicator: TA98, Metabolic Activation: NONE, Method: STANDARD PLATE
[2] = Test System: AMES SALMONELLA TYPHIMURIUM, Strain/Indicator: TA98, Metabolic Activation: RAT, LIVER, S-9, AROCLOR 1254, Method: STANDARD PLATE
[3] = Test System: AMES SALMONELLA TYPHIMURIUM, Strain/Indicator: TA100, Metabolic Activation: NONE, Method: STANDARD PLATE
[4] = Test System: AMES SALMONELLA TYPHIMURIUM, Strain/Indicator: TA100, Metabolic Activation: RAT, LIVER, S-9, AROCLOR 1254, Method: STANDARD PLATE

Measured: mutagenic call

O=C(/C=N/O)Nc1ccccc1
inactive: Test System: AMES SALMONELLA TYPHIMURIUM, Strain/Indicator: TA98, Metabolic Activation: HAMSTER, LIVER, S-9, AROCLOR 1254, Method: STANDARD PLATE inactive; negative | [1] inactive; negative | [2] inactive; negative | Test System: AMES SALMONELLA TYPHIMURIUM, Strain/Indicator: TA100, Metabolic Activation: HAMSTER, LIVER, S-9, AROCLOR 1254, Method: STANDARD PLATE inactive; negative | [3] inactive; negative | [4] inactive; negative | Test System: AMES SALMONELLA TYPHIMURIUM, Strain/Indicator: TA1535, Metabolic Activation: HAMSTER, LIVER, S-9, AROCLOR 1254, Method: STANDARD PLATE inactive; negative | Test System: AMES SALMONELLA TYPHIMURIUM, Strain/Indicator: TA1535, Metabolic Activation: NONE, Method: STANDARD PLATE inactive; negative | Test System: AMES SALMONELLA TYPHIMURIUM, Strain/Indicator: TA1535, Metabolic Activation: RAT, LIVER, S-9, AROCLOR 1254, Method: STANDARD PLATE inactive; negative | Test System: AMES SALMONELLA TYPHIMURIUM, Strain/Indicator: TA1537, Metabolic Activation: HAMSTER, LIVER, S-9, AROCLOR 1254, Method: STANDARD PLATE inactive; negative | Test System: AMES SALMONELLA TYPHIMURIUM, Strain/Indicator: TA1537, Metabolic Activation: NONE, Method: STANDARD PLATE inactive; negative | Test System: AMES SALMONELLA TYPHIMURIUM, Strain/Indicator: TA1537, Metabolic Activation: RAT, LIVER, S-9, AROCLOR 1254, Method: STANDARD PLATE inactive; negative | Test System: MOUSE LYMPHOMA, Strain/Indicator: L5178Y (TK+/TK-), Metabolic Activation: RAT, LIVER, S-9, AROCLOR 1254, Method: SUSPENSION/PLATE inactive; negative. reevaluation of results: negative
active: Test System: Mouse lymphoma, Strain/Indicator: L5178Y (tk+/tk-), Metabolic Activation: None, Method: Suspension/plate active; equivocal (previous evaluation: positive)

CC1(C)CC[C@]2(C(=O)O)CC[C@]3(C)C(=CC[C@@H]4[C@@]5(C)C[C@H](O)[C@H](O[C@@H]6O[C@H](CO)[C@@H](O)[C@H](O)[C@H]6O)C(C)(C(=O)O)C5CC[C@]43C)[C@H]2C1 (stereo partly drawn)
inactive: Test System: AMES SALMONELLA TYPHIMURIUM, Strain/Indicator: TA97, Metabolic Activation: NONE, Method: STANDARD PLATE inactive; negative | Test System: AMES SALMONELLA TYPHIMURIUM, Strain/Indicator: TA97, Metabolic Activation: RAT, LIVER, S-9, AROCLOR 1254, Method: STANDARD PLATE inactive; negative | [1] inactive; negative | [2] inactive; negative | [3] inactive; negative | [4] inactive; negative | Test System: AMES SALMONELLA TYPHIMURIUM, Strain/Indicator: TA102, Metabolic Activation: NONE, Method: STANDARD PLATE inactive; negative | Test System: AMES SALMONELLA TYPHIMURIUM, Strain/Indicator: TA102, Metabolic Activation: RAT, LIVER, S-9, AROCLOR 1254, Method: STANDARD PLATE inactive; negative

CCCN(CC(C)=O)N=O
active: Test System: CHINESE HAMSTER V-79, Strain/Indicator: V-79/OUABAIN, Metabolic Activation: HAMSTER, HEPATOCYTES, Method: CELL-MEDIATED active; positive

BrCC(Br)C1CCC(Br)C(Br)C1 (stereo not drawn)
active: End Point: IN VITRO CHROMOSOMAL ABERRATIONS, Test System: CHINESE HAMSTER LUNG CELLS (CHL), Metabolic Activation: RAT, LIVER, S-9, KC-400 active; positive (structural changes) | Test System: MOUSE LYMPHOMA, Strain/Indicator: L5178Y (TK+/TK-), Metabolic Activation: NONE, Method: SUSPENSION/PLATE active; positive
inactive: End Point: IN VITRO CHROMOSOMAL ABERRATIONS, Test System: CHINESE HAMSTER LUNG CELLS (CHL), Metabolic Activation: NONE inactive; negative | End Point: IN VITRO CHROMOSOMAL ABERRATIONS, Test System: CHINESE HAMSTER OVARY CELLS (CHO), Metabolic Activation: NONE inactive; negative | End Point: IN VITRO CHROMOSOMAL ABERRATIONS, Test System: CHINESE HAMSTER OVARY CELLS (CHO), Metabolic Activation: RAT, LIVER, S-9, AROCLOR 1254 inactive; negative | End Point: IN VITRO CHROMOSOMAL ABERRATIONS, Test System: CHO CELLS, Metabolic Activation: NONE inactive; negative | End Point: IN VITRO CHROMOSOMAL ABERRATIONS, Test System: CHO CELLS, Metabolic Activation: RAT, LIVER, S-9, AROCLOR 1254 inactive; negative | Test System: AMES SALMONELLA TYPHIMURIUM, Strain/Indicator: TA98, Metabolic Activation: HAMSTER, LIVER, S-9, AROCLOR 1254 (10%), Method: PREINCUBATION inactive; negative | Test System: AMES SALMONELLA TYPHIMURIUM, Strain/Indicator: TA98, Metabolic Activation: NONE, Method: PREINCUBATION inactive; negative | Test System: AMES SALMONELLA TYPHIMURIUM, Strain/Indicator: TA98, Metabolic Activation: RAT, LIVER, S-9, AROCLOR 1254 (10%), Method: PREINCUBATION inactive; negative | Test System: AMES SALMONELLA TYPHIMURIUM, Strain/Indicator: TA100, Metabolic Activation: HAMSTER, LIVER, S-9, AROCLOR 1254 (10%), Method: PREINCUBATION inactive; negative | Test System: AMES SALMONELLA TYPHIMURIUM, Strain/Indicator: TA100, Metabolic Activation: NONE, Method: PREINCUBATION inactive; negative | Test System: AMES SALMONELLA TYPHIMURIUM, Strain/Indicator: TA100, Metabolic Activation: RAT, LIVER, S-9, AROCLOR 1254 (10%), Method: PREINCUBATION inactive; negative | Test System: AMES SALMONELLA TYPHIMURIUM, Strain/Indicator: TA1535, Metabolic Activation: HAMSTER, LIVER, S-9, AROCLOR 1254 (10%), Method: PREINCUBATION inactive; negative | Test System: AMES SALMONELLA TYPHIMURIUM, Strain/Indicator: TA1535, Metabolic Activation: NONE, Method: PREINCUBATION inactive; negative | Test System: AMES SALMONELLA TYPHIMURIUM, Strain/Indicator: TA1535, Metabolic Activation: RAT, LIVER, S-9, AROCLOR 1254 (10%), Method: PREINCUBATION inactive; negative | Test System: AMES SALMONELLA TYPHIMURIUM, Strain/Indicator: TA1537, Metabolic Activation: HAMSTER, LIVER, S-9, AROCLOR 1254 (10%), Method: PREINCUBATION inactive; negative | Test System: AMES SALMONELLA TYPHIMURIUM, Strain/Indicator: TA1537, Metabolic Activation: NONE, Method: PREINCUBATION inactive; negative | Test System: AMES SALMONELLA TYPHIMURIUM, Strain/Indicator: TA1537, Metabolic Activation: RAT, LIVER, S-9, AROCLOR 1254 (10%), Method: PREINCUBATION inactive; negative

O=C(CCCl)N=c1sn(C(=O)CCCl)c2ccc(Cl)cc12
inactive: Test System: AMES SALMONELLA TYPHIMURIUM, Strain/Indicator: TA100, Metabolic Activation: S-9, Method: STANDARD PLATE inactive; negative
